# Source: patent US20050182242A1, “Global analysis of protein activities using proteome chips” (priority 2001, published 2005)
# Assays:
# [1] = test system: phospholipids (phosphatidylinositols vs phosphatidylcholine); assay: Proteome chip lipid-binding screen, overall analysis of six liposomes (PI/PC specificity); settings: phospholipid liposome probes
# From the text: FIGS. 4A-4D. Analysis of the phosphatidylinositol-binding proteins. To determine the phosphatidylinositol (“PI”)-binding specificity of 150 positive proteins, their binding signals were normalized against the corresponding binding signals of phosphatidylcholine (“PC”). Based on the ratios (“PI/PC”), the proteins were grouped into four categories: (A) 30 strong and specific, (B) 43 strong and nonspecific, (C) 19 weak and specific, and (D) 58 weak and nonspecific phosphatidylinositol-binding proteins. The intensity represents the PI/PC signal ratio as shown by the scale in the figure. The column, labeled “10^n” to the right of the PI/PC binding ratios indicates the maximum binding signal intensity (open boxes) and its confidence interval (solid horizontal lines); the numbers indicate the log of the values. Boxes in the three columns to the right of the confidence interval column indicate membrane-associated proteins (“Membrane”), kinases (“Kinase”), and uncharacterized ORFs (“Unknown”), respectively.
# To identify PI-binding proteins in yeast, liposomes were used as probes because the liposome provides the most relevant physiological condition to assay the interactors. Six types of liposomes were used. […] The biotinylated lipid serves as a label that can be detected by Cy3-streptavidin (21). […]
# PI(4,5)P2 liposomes = assay: Nitrocellulose membrane assay: adhered PI(4,5)P2 liposomes probed with GST fusion proteins; format: binding; settings: dilution series, anti-GST antibodies, ECL
# From the text: A. PI(4,5)P2 liposomes were first adhered to a nitrocellulose membrane, which was blocked by BSA; a dilution series of Rim15p, Eno2p, and Hxk1p, and a GST control were used to probe the membrane. The bound proteins were detected using the anti-GST antibodies and an enhanced chemiluminescence (“ECL”) kit.
# Therefore, six proteins, i.e., Rim15p, Eno2p, Hxk1p, Sps1p, Yg1059wp, and Gcn2p, were further tested for phosphoinositol binding using two types of standard assays (Williamson, 2000, Nat. Struct Biol. 7(10):834-7). For Rim15p, Eno2p, and Hxk1p, PI(4,5)P2 liposomes were first adhered to a nitrocellulose membrane, which was then blocked by BSA; different amounts of the GST fusion proteins and a GST control were used to probe the membrane, and bound proteins were detected using anti-GST antibodies. […] We also carried out the reverse assay for four GST fusion proteins, Rim15p, Sps1p, Yg1059wp, and Gcn2p (Guerra et al., 2000, Biosci. Rep. 20: 41). Different amounts of these purified proteins were spotted onto nitrocellulose filters and probed with the six different liposomes (FIG. 5B). The bound liposomes were detected using a horseradish peroxidase (“HRP”)-conjugated streptavidin.
substance,measurement,setting,value
"RIM15: yeast protein kinase, regulator of glucose metabolism, GST-HisX6 fusion",identified as lipid-binding interactor,[1],identified
same,"binding to PI(4,5)P2 liposomes on membrane","PI(4,5)P2 liposomes","tightly bound PI(4,5)P2"
